Data taken from patent publication US20160090364A1, “PHTHALAZINONES AND ISOQUINOLINONES AS ROCK INHIBITORS” (BRISTOL-MYERS SQUIBB COMPANY, priority 2013, published 2016).
pIC50: −log10 of the molar value.

Key:
ROCK1 = ROCK1 (Homo sapiens, UniProt Q13464); experiment: ROCK assay (Caliper LabChip peptide phosphorylation), ROCK1; assay type: biochemical; conditions: 5 μM ATP, 1.5 μM peptide substrate
Procedure: The effectiveness of compounds of the present invention as ROCK inhibitors can be determined in a 30 μL assay containing 20 mM HEPES, pH 7.5, 20 mM MgCl2, 0.015% Brij-35, 4 mM DTT, 5 μM ATP and 1.5 μM peptide substrate (FITC-AHA-[…]-OH). Compounds were dissolved in DMSO so that the final concentration of DMSO was <2%, and the reaction was initiated with Rho kinase variants. After incubation, the reaction was terminated by the addition of EDTA and the phosphorylated and non-phosphorylated peptides separated using a LabChip 3000 Reader (Caliper Life Sciences). […] Compounds were tested in dose-response format, and the inhibition of kinase activity was calculated at each concentration of compound. The inhibition data were fit using a curve-fitting program to determine the IC50; i.e., the concentration of compound required to inhibit 50% of kinase activity.”
Representative Examples were tested in the ROCK assay described above and found having ROCK inhibitory activity. A range of ROCK inhibitory activity (IC50 values) of ≦50 μM (50000 nM) was observed. Table A below lists the ROCK IC50 values measured for the following examples.

[1] = tested on: neointimal formation in rats; conditions: model similar to balloon injury; cited from earlier work
[2] = tested on: IL-1 beta-induced coronary stenosis; conditions: porcine, long term treatment; cited from earlier work

Sequence of ROCK1 (Q13464 whole entry, species assumed): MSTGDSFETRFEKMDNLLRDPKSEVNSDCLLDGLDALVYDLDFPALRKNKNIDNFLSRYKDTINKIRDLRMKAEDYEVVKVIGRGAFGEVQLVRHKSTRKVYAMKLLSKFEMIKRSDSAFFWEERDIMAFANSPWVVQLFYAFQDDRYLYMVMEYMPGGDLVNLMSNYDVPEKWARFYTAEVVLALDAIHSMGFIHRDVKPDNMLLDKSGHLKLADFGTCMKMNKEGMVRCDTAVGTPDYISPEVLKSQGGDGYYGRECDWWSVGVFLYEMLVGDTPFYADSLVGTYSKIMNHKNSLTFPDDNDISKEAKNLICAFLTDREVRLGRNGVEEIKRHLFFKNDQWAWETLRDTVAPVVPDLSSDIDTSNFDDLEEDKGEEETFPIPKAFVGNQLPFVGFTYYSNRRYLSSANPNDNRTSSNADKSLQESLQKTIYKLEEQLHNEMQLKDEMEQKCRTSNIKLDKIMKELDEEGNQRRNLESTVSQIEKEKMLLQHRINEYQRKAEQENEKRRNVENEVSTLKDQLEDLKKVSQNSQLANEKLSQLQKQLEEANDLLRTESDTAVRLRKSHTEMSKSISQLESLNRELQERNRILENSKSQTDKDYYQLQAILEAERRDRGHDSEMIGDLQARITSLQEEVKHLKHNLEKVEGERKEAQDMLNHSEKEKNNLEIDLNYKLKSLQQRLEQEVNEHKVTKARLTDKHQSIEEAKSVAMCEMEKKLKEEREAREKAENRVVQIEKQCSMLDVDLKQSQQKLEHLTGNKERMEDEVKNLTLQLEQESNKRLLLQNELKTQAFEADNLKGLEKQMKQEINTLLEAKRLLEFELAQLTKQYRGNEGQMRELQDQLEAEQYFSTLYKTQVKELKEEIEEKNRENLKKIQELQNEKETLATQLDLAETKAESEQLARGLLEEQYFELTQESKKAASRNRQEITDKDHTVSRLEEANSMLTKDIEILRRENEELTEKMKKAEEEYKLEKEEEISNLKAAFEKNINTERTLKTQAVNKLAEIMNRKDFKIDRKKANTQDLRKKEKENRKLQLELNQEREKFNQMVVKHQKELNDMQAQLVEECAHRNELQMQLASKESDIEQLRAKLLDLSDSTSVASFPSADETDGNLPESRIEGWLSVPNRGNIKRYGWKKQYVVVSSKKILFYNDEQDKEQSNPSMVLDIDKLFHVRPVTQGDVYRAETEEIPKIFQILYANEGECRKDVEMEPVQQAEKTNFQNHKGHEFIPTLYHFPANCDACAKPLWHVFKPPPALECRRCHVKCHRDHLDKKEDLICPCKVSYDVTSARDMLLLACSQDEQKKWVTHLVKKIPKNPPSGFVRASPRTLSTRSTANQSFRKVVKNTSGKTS

O=C(Oc1ccc(-c2n[nH]c(=O)c3ccccc23)cc1)N1CCC(c2ccccc2)C1 (stereo not shown) [Example 69, 4-(4-oxo-3,4-dihydrophthalazin-1-yl)phenyl 3-phenylpyrrolidine-1-carboxylate]
pIC50 (ROCK1): ≤ 4.30

C[C@@H](N)[C@H]1CC[C@H](C(=O)Nc2ccncc2)CC1 [Example Y-27632, Y-27632]
neointimal formation [1]: inhibited neointimal formation

O=S(=O)(c1cccc2cnccc12)N1CCCNCC1 [fasudil]
coronary constrictive remodeling [2]: promote a regression of coronary constrictive remodeling | coronary stenosis [2]: progressively reduce coronary stenosis
